Assay results as given in patent US12054463B2, “Radiolabeled microtubule imaging compounds and uses thereof” (The Trustees of Columbia University in the City of New York, priority 2017, dated 2024).
Entries after “also recorded” stand apart in the source; their conditions may differ.

Tests used:
[1] = molecular target: α2C (Homo sapiens, UniProt P18825); test: Affinity to brain targets (panel); assay type: binding
[2] = molecular target: α2B (Homo sapiens, UniProt P18089); test: Affinity to brain targets (panel); assay type: binding
[3] = molecular target: mGluR; test: Affinity to brain targets (panel); assay type: binding; conditions: mGluR (mGluRs): metabotropic glutamate receptors
[4] = molecular target: 5-HT2C (Homo sapiens, UniProt P28335); test: Affinity to brain targets (panel); assay type: binding
[5] = molecular target: variety of brain targets; test: Affinity for a variety of brain targets; assay type: binding; conditions: variety of brain targets (Table 1), except H4R
[6] = molecular target: D3 (Homo sapiens, UniProt P35462); test: Affinity to brain targets (panel); assay type: binding; conditions: D3: dopamine
Sequence of D3 (P35462 whole entry): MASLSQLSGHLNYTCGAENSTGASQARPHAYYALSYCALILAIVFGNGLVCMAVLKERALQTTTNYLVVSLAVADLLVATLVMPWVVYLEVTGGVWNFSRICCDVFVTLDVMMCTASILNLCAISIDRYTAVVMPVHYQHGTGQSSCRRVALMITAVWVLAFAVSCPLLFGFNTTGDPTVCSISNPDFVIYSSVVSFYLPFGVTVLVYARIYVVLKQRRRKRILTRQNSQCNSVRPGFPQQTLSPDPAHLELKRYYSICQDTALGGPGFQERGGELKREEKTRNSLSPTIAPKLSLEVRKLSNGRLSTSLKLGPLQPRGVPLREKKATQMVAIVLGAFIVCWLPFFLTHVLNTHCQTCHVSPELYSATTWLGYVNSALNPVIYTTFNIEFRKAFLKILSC

[7] = molecular target: CB1 (Homo sapiens, UniProt P21554); test: Affinity to brain targets (panel); assay type: binding; conditions: CB1: cannabinoid
Sequence of CB1 (P21554 whole entry, species assumed): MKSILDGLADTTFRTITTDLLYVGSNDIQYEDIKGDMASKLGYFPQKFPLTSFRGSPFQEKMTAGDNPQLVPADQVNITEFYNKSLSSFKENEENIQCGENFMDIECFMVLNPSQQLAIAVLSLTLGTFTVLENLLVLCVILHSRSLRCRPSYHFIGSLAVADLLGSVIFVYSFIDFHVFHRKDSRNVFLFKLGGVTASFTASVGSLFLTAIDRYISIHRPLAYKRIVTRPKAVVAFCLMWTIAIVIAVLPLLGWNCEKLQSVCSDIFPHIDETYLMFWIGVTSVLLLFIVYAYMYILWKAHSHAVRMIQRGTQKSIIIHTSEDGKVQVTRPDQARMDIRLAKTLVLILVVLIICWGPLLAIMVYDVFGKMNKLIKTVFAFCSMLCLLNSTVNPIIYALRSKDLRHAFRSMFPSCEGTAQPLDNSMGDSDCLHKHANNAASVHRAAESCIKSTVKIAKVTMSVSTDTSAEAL

[8] = molecular target: β1 (Homo sapiens, UniProt P08588); test: Affinity to brain targets (panel); assay type: binding
[9] = molecular target: α1A-1C; test: Affinity to brain targets (panel); assay type: binding
[10] = molecular target: KA; test: Affinity to brain targets (panel); assay type: binding; conditions: KA (KAR): Kainate
[11] = molecular target: 5-HT3 (Homo sapiens, UniProt P46098); test: Affinity to brain targets (panel); assay type: binding
Sequence of 5-HT3 (P46098 24-478, species assumed): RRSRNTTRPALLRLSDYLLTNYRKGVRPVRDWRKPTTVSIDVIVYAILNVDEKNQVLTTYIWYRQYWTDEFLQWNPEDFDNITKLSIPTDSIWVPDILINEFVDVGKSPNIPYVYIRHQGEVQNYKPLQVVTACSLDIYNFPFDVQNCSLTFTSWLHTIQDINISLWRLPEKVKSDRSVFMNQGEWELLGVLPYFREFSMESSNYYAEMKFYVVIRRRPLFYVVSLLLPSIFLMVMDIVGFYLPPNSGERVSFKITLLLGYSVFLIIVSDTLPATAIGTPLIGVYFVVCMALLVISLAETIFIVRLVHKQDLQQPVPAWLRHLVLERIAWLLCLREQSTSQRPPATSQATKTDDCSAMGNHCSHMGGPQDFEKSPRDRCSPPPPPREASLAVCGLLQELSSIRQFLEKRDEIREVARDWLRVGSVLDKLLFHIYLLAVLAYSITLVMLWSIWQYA

[12] = molecular target: 5-HT1B (Homo sapiens, UniProt P28222); test: Affinity to brain targets (panel); assay type: binding
Sequence of 5-HT1B (P28222 whole entry, species assumed): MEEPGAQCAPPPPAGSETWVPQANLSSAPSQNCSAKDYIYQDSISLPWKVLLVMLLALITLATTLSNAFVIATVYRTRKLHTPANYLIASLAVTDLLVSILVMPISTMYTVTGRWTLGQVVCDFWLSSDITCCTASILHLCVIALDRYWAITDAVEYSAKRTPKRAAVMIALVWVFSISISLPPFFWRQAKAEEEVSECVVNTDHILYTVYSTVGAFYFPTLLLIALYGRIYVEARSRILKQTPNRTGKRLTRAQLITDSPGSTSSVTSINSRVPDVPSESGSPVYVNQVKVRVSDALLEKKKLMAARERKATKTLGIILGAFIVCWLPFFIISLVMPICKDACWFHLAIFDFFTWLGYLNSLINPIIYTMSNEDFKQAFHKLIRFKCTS

[13] = molecular target: D1, D2; test: Affinity to brain targets (panel); assay type: binding; conditions: D1, D2: dopamine
[14] = molecular target: V1-2; test: Affinity to brain targets (panel); assay type: binding; conditions: V1-2: vasopressin
[15] = molecular target: NT; test: Affinity to brain targets (panel); assay type: binding; conditions: NT: neurotrophin
[16] = molecular target: EP; test: Affinity to brain targets (panel); assay type: binding; conditions: EP: prostanoid receptors
[17] = test system: panel of kinases; conditions: cited from earlier work
[18] = molecular target: 5-HT2B (Homo sapiens, UniProt P41595); test: Affinity to brain targets (panel); assay type: binding
Sequence of 5-HT2B (P41595 whole entry, species assumed): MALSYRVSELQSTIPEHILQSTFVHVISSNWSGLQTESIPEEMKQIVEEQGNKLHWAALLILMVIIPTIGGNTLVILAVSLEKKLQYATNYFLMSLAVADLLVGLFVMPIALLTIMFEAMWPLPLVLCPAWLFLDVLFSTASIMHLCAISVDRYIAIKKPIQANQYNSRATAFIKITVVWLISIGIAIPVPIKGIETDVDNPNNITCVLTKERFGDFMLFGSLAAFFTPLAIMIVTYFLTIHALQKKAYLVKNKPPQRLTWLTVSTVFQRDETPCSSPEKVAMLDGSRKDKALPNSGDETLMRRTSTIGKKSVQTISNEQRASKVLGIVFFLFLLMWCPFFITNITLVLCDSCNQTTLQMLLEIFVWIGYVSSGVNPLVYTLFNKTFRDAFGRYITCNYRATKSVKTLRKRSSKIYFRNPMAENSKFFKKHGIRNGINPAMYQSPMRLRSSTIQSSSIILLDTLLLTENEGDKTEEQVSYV

[19] = molecular target: NK; test: Affinity to brain targets (panel); assay type: binding; conditions: NK: neurokinin
[20] = molecular target: D4 (Homo sapiens, UniProt P21917); test: Affinity to brain targets (panel); assay type: binding; conditions: D4: dopamine
Sequence of D4 (P21917 whole entry): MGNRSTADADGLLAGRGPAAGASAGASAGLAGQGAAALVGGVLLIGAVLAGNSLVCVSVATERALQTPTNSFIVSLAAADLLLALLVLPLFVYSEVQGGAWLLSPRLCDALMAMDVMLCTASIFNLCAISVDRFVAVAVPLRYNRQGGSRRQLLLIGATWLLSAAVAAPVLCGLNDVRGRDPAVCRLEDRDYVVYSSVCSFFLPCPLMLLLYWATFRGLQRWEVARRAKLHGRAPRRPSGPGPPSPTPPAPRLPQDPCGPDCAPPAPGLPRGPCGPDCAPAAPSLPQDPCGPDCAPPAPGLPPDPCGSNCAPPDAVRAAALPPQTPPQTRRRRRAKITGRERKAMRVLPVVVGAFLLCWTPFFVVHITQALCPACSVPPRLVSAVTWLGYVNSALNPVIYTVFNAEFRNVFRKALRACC

[21] = molecular target: D5 (Homo sapiens, UniProt P21918); test: Affinity to brain targets (panel); assay type: binding; conditions: D5: dopamine
Sequence of D5 (P21918 whole entry): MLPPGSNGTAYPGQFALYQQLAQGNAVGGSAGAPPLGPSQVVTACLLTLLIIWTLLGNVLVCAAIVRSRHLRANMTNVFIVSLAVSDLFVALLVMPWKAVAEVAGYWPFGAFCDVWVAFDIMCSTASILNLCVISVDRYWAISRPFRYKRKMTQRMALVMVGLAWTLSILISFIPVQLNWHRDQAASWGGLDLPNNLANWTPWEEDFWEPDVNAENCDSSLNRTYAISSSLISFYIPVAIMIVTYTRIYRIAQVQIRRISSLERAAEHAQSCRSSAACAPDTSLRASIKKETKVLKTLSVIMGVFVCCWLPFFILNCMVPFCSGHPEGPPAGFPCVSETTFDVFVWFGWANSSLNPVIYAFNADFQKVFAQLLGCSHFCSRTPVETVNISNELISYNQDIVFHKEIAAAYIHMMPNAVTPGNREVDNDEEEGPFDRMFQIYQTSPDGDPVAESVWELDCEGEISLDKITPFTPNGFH

[22] = molecular target: Adenosine; test: Affinity to brain targets (panel); assay type: binding; conditions: Adenosine (A)
[23] = molecular target: 5-HT1D (Homo sapiens, UniProt P28221); test: Affinity to brain targets (panel); assay type: binding
Sequence of 5-HT1D (P28221 whole entry, species assumed): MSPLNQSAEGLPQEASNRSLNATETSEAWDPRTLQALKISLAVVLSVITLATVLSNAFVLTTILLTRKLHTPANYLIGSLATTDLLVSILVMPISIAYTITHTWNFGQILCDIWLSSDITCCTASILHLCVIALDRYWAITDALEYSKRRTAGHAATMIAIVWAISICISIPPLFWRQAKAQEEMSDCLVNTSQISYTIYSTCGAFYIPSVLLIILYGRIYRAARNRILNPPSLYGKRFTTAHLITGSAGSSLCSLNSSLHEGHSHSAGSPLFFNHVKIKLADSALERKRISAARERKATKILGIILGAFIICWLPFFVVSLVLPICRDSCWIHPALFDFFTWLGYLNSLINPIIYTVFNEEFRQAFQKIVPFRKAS

[24] = molecular target: H3, H4; test: Affinity to brain targets (panel); assay type: binding; conditions: H3, H4: histamine
[25] = molecular target: BZP; test: Affinity to brain targets (panel); assay type: binding; conditions: BZP: benzodiazepine
[26] = test system: microtubules (MTs); conditions: reference 9; cited from earlier work
[27] = molecular target: 5-HT1E (Homo sapiens, UniProt P28566); test: Affinity to brain targets (panel); assay type: binding
Sequence of 5-HT1E (P28566 whole entry, species assumed): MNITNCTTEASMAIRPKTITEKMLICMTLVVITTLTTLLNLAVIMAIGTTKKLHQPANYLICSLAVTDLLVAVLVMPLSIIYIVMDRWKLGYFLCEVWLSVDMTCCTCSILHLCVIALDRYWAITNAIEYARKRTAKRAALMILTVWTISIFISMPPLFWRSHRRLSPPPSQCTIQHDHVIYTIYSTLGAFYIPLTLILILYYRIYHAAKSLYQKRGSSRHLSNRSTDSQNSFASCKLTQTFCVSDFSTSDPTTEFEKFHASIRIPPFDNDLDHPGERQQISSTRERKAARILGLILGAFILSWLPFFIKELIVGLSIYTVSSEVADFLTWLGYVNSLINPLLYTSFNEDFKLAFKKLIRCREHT

[28] = molecular target: VMAT; test: Affinity to brain targets (panel); assay type: binding; conditions: VMAT (VMAT 1,2): vesicular monoamine transporter
[29] = molecular target: Ca++ channel; test: Affinity to brain targets (panel); assay type: binding
[30] = molecular target: CB2 (Homo sapiens, UniProt P34972); test: Affinity to brain targets (panel); assay type: binding; conditions: CB2: cannabinoid
[31] = molecular target: H2 (Homo sapiens, UniProt P25021); test: Affinity to brain targets (panel); assay type: binding; conditions: H2: histamine
[32] = molecular target: β3 (Homo sapiens, UniProt P13945); test: Affinity to brain targets (panel); assay type: binding
Sequence of β3 (P13945 whole entry): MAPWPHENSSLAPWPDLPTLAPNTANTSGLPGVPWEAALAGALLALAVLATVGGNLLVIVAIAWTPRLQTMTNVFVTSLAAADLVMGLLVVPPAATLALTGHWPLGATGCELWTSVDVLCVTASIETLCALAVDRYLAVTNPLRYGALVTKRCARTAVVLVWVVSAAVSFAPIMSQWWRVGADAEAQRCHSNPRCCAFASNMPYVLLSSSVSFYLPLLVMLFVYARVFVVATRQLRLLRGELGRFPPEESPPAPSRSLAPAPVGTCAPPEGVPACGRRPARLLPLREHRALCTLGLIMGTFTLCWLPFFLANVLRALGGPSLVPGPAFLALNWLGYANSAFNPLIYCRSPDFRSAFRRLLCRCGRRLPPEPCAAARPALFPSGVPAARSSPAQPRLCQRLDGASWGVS

[33] = molecular target: 5-HT1A (Homo sapiens, UniProt P08908); test: Affinity to brain targets (panel); assay type: binding
[34] = molecular target: M; test: Affinity to brain targets (panel); assay type: binding; conditions: M: muscarinic
[35] = molecular target: 5-HT7 (Homo sapiens, UniProt P34969); test: Affinity to brain targets (panel); assay type: binding
[36] = molecular target: PKC; test: Affinity to brain targets (panel); assay type: binding; conditions: PKC: Protein kinase C
[37] = molecular target: 5-HT2A (Homo sapiens, UniProt P28223); test: Affinity to brain targets (panel); assay type: binding
[38] = molecular target: β2 (Homo sapiens, UniProt P07550); test: Affinity to brain targets (panel); assay type: binding
[39] = molecular target: Na+ Channel; test: Affinity to brain targets (panel); assay type: binding
[40] = molecular target: GABA; test: Affinity to brain targets (panel); assay type: binding
[41] = molecular target: α2A (Homo sapiens, UniProt P08913); test: Affinity to brain targets (panel); assay type: binding
[42] = molecular target: I; test: Affinity to brain targets (panel); assay type: binding
[43] = molecular target: NMDA; test: Affinity to brain targets (panel); assay type: binding
[44] = molecular target: MOR (Homo sapiens, UniProt P35372); test: Affinity to brain targets (panel); assay type: binding; conditions: MOR: mu opioid receptor
[45] = molecular target: AMPA; test: Affinity to brain targets (panel); assay type: binding
[46] = molecular target: Sigma1 (Homo sapiens, UniProt Q99720); test: Affinity to brain targets (panel); assay type: binding
Sequence of Sigma1 (Q99720 whole entry): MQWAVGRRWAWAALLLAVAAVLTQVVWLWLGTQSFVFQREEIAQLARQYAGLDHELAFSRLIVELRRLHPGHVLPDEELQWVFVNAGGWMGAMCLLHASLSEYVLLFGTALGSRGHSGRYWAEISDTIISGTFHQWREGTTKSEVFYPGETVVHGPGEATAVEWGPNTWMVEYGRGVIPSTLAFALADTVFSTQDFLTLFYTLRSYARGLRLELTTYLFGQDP

[47] = test system: amyloid overexpressing 5×FAD-AD mice; test: MicroPET in AD animal model 5×FAD; assay type: in vivo; conditions: 15 month-old
Source text: In vivo imaging of [^11C]MPC-6827 in amyloid overexpressing 5×FAD-AD mice (15 month-old) show 40% lower binding of radiotracer in the whole brain model in comparison to the wild type controls (FIGS. 10 and 11). The tracer binding in frontal and mid brain regions show significant lower binding than whole brain in comparison to wild type mice.

[48] = test system: brain MT; test: MicroPET in athymic nude male mice; assay type: in vivo
Procedure: (§1) Biodistribution of [^11C] […] The time-activity curves were expressed in g/mL normalized to the injected dose corrected for weight, to obtain standardized uptake values (SUVs). The brain SUV of [^11C] […] The heart, blood and muscles also show binding to [^11C] MPC-6827 and are consistent with known distribution of MTs in these organs. […] The lungs show higher uptake up to 30 minutes, followed by washout. 70% specific binding in brain was established at 30 minutes prior to the injection of radiotracer with 5 mg/kg MPC-6827 (FIG. 2) in mice.
Radioligand binding in thyroid gland, is also displaced during the blocking experiments.^21-23

[49] = test system: glioblastoma PDX cells; test: In vitro cell uptake; assay type: cell-based
[50] = test system: glioblastoma (GBM) U251 cells; test: In vitro cell uptake; assay type: cell-based
[51] = log Poct/wat by shake flask method; assay type: physicochemical; conditions: octanol/water
Procedure: (§2) The radiochemical synthesis of [^11C] MPC-6827 was optimized and automated on aGE-FX2MeI/FX2M radiochemistry module by alkylating the desmethyl-MPC6827 precursor (6) with [^11C] MeI in DMF using NaOH. [^11C] MPC-6827 was produced with a radiochemical yield (RCY) of 40%, in >99% radiochemical purity and a specific activity of 2+0.5 Ci/μmol (decay corrected to end of synthesis (EOS)). The radioligand was stable in 5% ethanol-saline formulation for 4 h and the log Poct/wat was estimated as 3.8 by shake flask method.

[52] = Stability in 5% ethanol-saline formulation; assay type: physicochemical
Procedure: as §2

[53] = test system: tau-overexpressing rTg4510 mice; test: MicroPET in AD animal model rTg4510; assay type: in vivo; conditions: 9-month old
Source text: MicroPET studies with 9-month old, tau-overexpressing rTg4510 mice (Alzheimer disease-tau pathology) show ˜35% lower binding of [^11C]MPC-6827 brain activity in comparison to the control mice (FIGS. 12 and 13).

[54] = test system: rat brain; test: MicroPET in rat; assay type: in vivo
[55] = test system: MDA-MB-231 cells; test: Cell uptake and blocking; assay type: cell-based
[56] = test system: prostate cancer (PC3) cells; test: In vitro cell uptake; assay type: cell-based
[57] = test system: brain MT; test: Biodistribution in white male mice; assay type: in vivo
Procedure: as §1

Sequence of α2C (P18825 whole entry): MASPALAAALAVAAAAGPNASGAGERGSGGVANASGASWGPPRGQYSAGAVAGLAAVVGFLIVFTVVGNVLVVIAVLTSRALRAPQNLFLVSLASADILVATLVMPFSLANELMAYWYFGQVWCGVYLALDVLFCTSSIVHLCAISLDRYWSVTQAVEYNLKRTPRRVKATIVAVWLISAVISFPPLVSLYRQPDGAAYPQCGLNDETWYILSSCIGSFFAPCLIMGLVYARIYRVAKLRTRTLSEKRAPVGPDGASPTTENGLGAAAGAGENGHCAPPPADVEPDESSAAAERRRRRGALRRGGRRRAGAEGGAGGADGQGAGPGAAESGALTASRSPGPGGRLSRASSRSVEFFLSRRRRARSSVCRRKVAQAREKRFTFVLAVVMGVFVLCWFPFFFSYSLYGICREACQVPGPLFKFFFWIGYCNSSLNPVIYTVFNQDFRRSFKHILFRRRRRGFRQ

## COc1ccc(N(C)c2nc(C)nc3ccccc23)cc1 [MPC-6827, N-(4-methoxyphenyl)-N,2-dimethylquinazolin-4-amine]
[1]
  Ki: > 10 µM
[2]
  Ki: > 10 µM
[3]
  Ki: > 10 µM
[4]
  Ki: > 10 µM
[5]
  Ki: > 10 µM
[6]
  Ki: > 10 µM
[7]
  Ki: > 10 µM
[8]
  Ki: > 10 µM
[9]
  Ki: > 10 µM
[10]
  Ki: > 10 µM
[11]
  Ki: > 10 µM
[12]
  Ki: > 10 µM
[13]
  Ki: > 10 µM
[14]
  Ki: > 10 µM
[15]
  Ki: > 10 µM
[16]
  Ki: > 10 µM
[17]
  binding to a panel / variety of kinases: did not show binding
[18]
  Ki: > 10 µM
[19]
  Ki: > 10 µM
[20]
  Ki: > 10 µM
[21]
  Ki: > 10 µM
[22]
  Ki: > 10 µM
[23]
  Ki: > 10 µM
[24]
  Ki: > 10 µM
[25]
  Ki: > 10 µM
[26]
  competition at microtubule binding sites: compete with paclitaxel and colchicine, but not with vinblastine
[27]
  Ki: > 10 µM
[28]
  Ki: > 10 µM
[29]
  Ki: > 10 µM
[30]
  Ki: > 10 µM
[31]
  Ki: 155 nM
[32]
  Ki: > 10 µM
[33]
  Ki: > 10 µM
[34]
  Ki: > 10 µM
[35]
  Ki: > 10 µM
[36]
  Ki: > 10 µM
[37]
  Ki: > 10 µM
[38]
  Ki: > 10 µM
[39]
  Ki: > 10 µM
[40]
  Ki: > 10 µM
[41]
  Ki: > 10 µM
[42]
  Ki: > 10 µM
[43]
  Ki: > 10 µM
[44]
  Ki: 6.48 µM
[45]
  Ki: > 10 µM
[46]
  Ki: 426 nM

## COc1ccc(N(C)c2nc(C)nc3ccccc23)cc1 [[^11C]MPC-6827]
[47]
  lower binding of radiotracer in the whole brain vs wild type controls: 40%
[48]; microPET, nude mice, baseline
  brain uptake / BBB penetration: excellent brain uptake; also recorded: penetrates the blood brain barrier (BBB) with excellent retention
[48]; pre-administration of 5 mg/kg MPC-6827 and 5 mg/kg HD-800 (i.v.)
  blocking of brain uptake: substantially blocked
[49]
  uptake and specific binding: excellent uptake and specific binding
[50]
  uptake and specific binding: excellent uptake and specific binding
[51]
  logP: 3.8
[52]
  stable in 5% ethanol-saline formulation: 4 h
[53]
  lower binding (brain activity) vs control mice: ~35%
[54]
  BBB penetration and retention in brain: BBB penetration and excellent retention
[55]
  binding site on microtubules: binds to taxane and colchicine binding sites of microtubules
  incubation time to equilibrium binding: 60 min
[55]; with 5 μM MPC-6827
  specific binding: 95%
[55]; with 5 μM MTA HD-800
  specific binding: 95%
[55]; with 5 μM colchicine
  specific binding: 65%
[55]; with 5 μM docetaxel
  specific binding: 88%
[55]; with 5 μM paclitaxel
  specific binding: 78%
[56]
  uptake and specific binding: excellent uptake and specific binding
[57]; biodistribution, white male mice
  BBB penetration and brain retention: penetrated the BBB and was retained in the brain
[57]; mice, 30 minutes, blocking with 5 mg/kg MPC-6827
  specific binding in brain: 70%
[57]; mice, compared with established PET tracers
  brain SUV: higher than that of the established brain PET/periphery PET tracers
